The values below come from patent US20030022821A1, “Bioactive peptides” (priority 1998, published 2003).

≈ marks a conversion by molar mass, not a printed value. Where “and” joins values, the source holds several entries; their conditions need not be identical. Equal values may be shown once. Entries after “also recorded” stand apart in the source; their conditions may differ. Read-outs that look alike come from different tables or passages of the source. Square brackets hold non-standard residues; d marks the D form. Peptide text beside a SMILES is read from it. Bip = N[C@@H](Cc1ccc(-c2ccccc2)cc1)C(=O)O

Holding throughout (assay type): cell-based
Test [1] concerns MRSA (methicillin resistant S. aureus). The protocol: The bacterial strains used were: Escherichia coli ATCC 25922 and Staphylococcus aureus ATCC 25923. All strains were stored at −70° C. The bacteria were grown in 2% Bacto Peptone water (Difco 1807-17-4). All tests were performed with bacteria in mid-logarithmic growth phase. Determination of the minimum inhibitory concentration (MIC) of the peptides for bacterial strains were performed in 1% Bacto Peptone water. A standard microdilution technique with an inoculum of 2×10^6 CFU/ml was used. All assays were performed in triplets. Since the peptides are positively charged and therefore could adhere to the plastic wells, we controlled the actual concentration of the peptides in the solution by HPLC. There was no difference between the concentration of the peptides before or after adding the solution to the plastic wells.
Table 13 below gives the antibacterial activity and toxicity data for some preferred peptides of the invention. MRSA is methicillin resistant S. aureus and MRSE is methicillin resistant S. epidermidis.

The test system of test [2] is Escherichia coli ATCC 25922. An outline of the steps:
(§1)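 MIC values came from a standard microdilution method using mid-log bacteria at 2×10^6 CFU/ml in 1% Bacto Peptone water. HPLC confirmed actual peptide concentrations in solution, given possible adherence of the cationic peptides to plastic.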

Test [3] deals with Staphylococcus aureus ATCC 25923. An outline of the steps: as §1

In the case of `C[C@@H](NC(=O)[C@H](Cc1c[nH]c2ccccc12)NC(=O)[C@H](CCCNC(=N)N)NC(=O)[C@H](Cc1c[nH]c2ccccc12)NC(=O)[C@@H](C)NC(=O)[C@@H](CCCNC(=N)N)NC(=O)[C@H](N)Cc1ccc(O)cc1)C(=O)N[C@@H](Cc1c[nH]c2ccccc12)C(=O)N[C@@H](CCCNC(=N)N)C(=O)N[C@@H](Cc1c[nH]c2ccccc12)C(=O)N[C@@H](CCCNC(=N)N)C(N)=O` (H-[dY][dR][dA]WRW[dA]WRWR-NH2), the “MIC MRSA” value in test [1] (Table 14) was 2.5 µg/mL. Moreover, in test [2] (Table 14, peptides with a proportion of D amino acids), the “MIC E. coli” value was found to be 7.5 µg/mL (≈ 4.43 µM). In test [3] (Table 14), the “MIC S. aureus” value worked out at 5 µg/mL (≈ 2.96 µM).

For `CSCC[C@H](NC(=O)[C@H](CCCNC(=N)N)NC(=O)[C@H](Cc1c[nH]c2ccccc12)NC(=O)[C@H](CCC(N)=O)NC(=O)[C@H](Cc1c[nH]c2ccccc12)NC(=O)[C@H](CCCNC(=N)N)NC(=O)[C@H](CCCNC(=N)N)NC(=O)[C@H](Cc1ccc(-c2ccccc2)cc1)NC(=O)[C@H](CCCCN)NC(=O)[C@@H](N)Cc1ccccc1)C(=O)N[C@@H](CCCCN)C(=O)N[C@@H](CCCCN)C(=O)N[C@@H](CC(C)C)C(=O)NCC(=O)N[C@@H](C)C(=O)O` [LFB Bip3] (H-FK[Bip]RRWQWRMKKLGA-OH; N-terminus assumed), the “MIC MRSA” value stood at 2.5 µg/mL in test [1] (Table 13, listed as LPB Bip 3) and 1.2 µM in test [1] (methicillin resistant). Moreover, the “MIC E. coli” value in test [2] (Table 13, listed as LPB Bip 3) was 12.5 µg/mL (≈ 5.91 µM).

For the compound `CSCC[C@H](NC(=O)[C@H](CCCNC(=N)N)NC(=O)[C@H](Cc1ccc(-c2ccccc2)cc1)NC(=O)[C@H](CCC(N)=O)NC(=O)[C@H](Cc1ccc(-c2ccccc2)cc1)NC(=O)[C@H](CCCNC(=N)N)NC(=O)[C@H](CCCNC(=N)N)NC(=O)[C@H](CSCNC(C)=O)NC(=O)[C@H](CCCCN)NC(=O)[C@@H](N)Cc1ccccc1)C(=O)N[C@@H](CCCCN)C(=O)N[C@@H](CCCCN)C(=O)N[C@@H](CC(C)C)C(=O)NCC(=O)N[C@@H](C)C(=O)O` [LFB Bip6, 8], the “MIC MRSA” value in test [1] (Table 13, 8) stood at 2.5 µg/mL; in test [1] (methicillin resistant), 1.2 µM. Moreover, the “MIC E. coli” value in test [2] (ATCC 25922) was 10 µg/mL (≈ 4.67 µM); in test [2] (Table 13, 8) it was “≧12.5 μg/ml; also recorded: ≧5.8 μM”. Further, the “MIC S. aureus” value in test [3] (Table 13, 8) amounted to 3.0 µg/mL (≈ 1.4 µM).

Take `CSCC[C@H](NC(=O)[C@H](CCCNC(=N)N)NC(=O)[C@H](Cc1ccc(-c2ccccc2)cc1)NC(=O)[C@H](CCC(N)=O)NC(=O)[C@H](Cc1c(S(=O)(=O)c2c(C)c(C)c3c(c2C)CCC(C)(C)O3)[nH]c2ccccc12)NC(=O)[C@H](CCCNC(=N)N)NC(=O)[C@H](CCCNC(=N)N)NC(=O)[C@H](CSCNC(C)=O)NC(=O)[C@H](CCCCN)NC(=O)[C@@H](N)Cc1ccccc1)C(=O)N[C@@H](CCCCN)C(=O)N[C@@H](CCCCN)C(=O)N[C@@H](CC(C)C)C(=O)NCC(=O)N[C@@H](C)C(=O)O` [LFB Bip8 PMC]: in test [1] (Table 13), the “MIC MRSA” value is 2.5 μg/ml and 1.1 μM. In addition, the “MIC E. coli” value in test [2] (Table 8) was 25 µg/mL (≈ 10.6 µM); in test [2] (Table 13) it was 15.0 μg/ml and 6.3 μM. In addition, the “MIC S. aureus” value in test [3] (Table 8) is 5 µg/mL (≈ 2.11 µM); in test [3] (Table 13), 2.5 μg/ml and 1.1 μM.

As to `N=C(N)NCCC[C@@H](N)C(=O)N[C@@H](Cc1c[nH]c2ccccc12)C(=O)N[C@H](Cc1c[nH]c2ccccc12)C(=O)N[C@@H](CCCNC(=N)N)C(=O)N[C@H](Cc1ccc(O)cc1)C(=O)N[C@@H](Cc1c[nH]c2ccccc12)C(=O)N[C@H](CCCNC(=N)N)C(N)=O` [arg-TRP-trp-ARG-tyr-TRP-arg-CONH2] (H-[dR]W[dW]R[dY]W[dR]-NH2; N-terminus assumed), the “MIC MRSA” value in test [1] (methicillin resistant) turned out to be 2.5 µg/mL. Moreover, in test [2] (ATCC 25922), the “MIC E. coli” value is 7.5 µg/mL (≈ 6.21 µM). The “MIC S. aureus” value in test [3] (ATCC 25923) was determined as 5 µg/mL (≈ 4.14 µM).

With `N=C(N)NCCC[C@@H](N)C(=O)N[C@H](Cc1c[nH]c2ccccc12)C(=O)N[C@@H](Cc1c[nH]c2ccccc12)C(=O)N[C@@H](CCCNC(=N)N)C(=O)N[C@@H](Cc1ccc(O)cc1)C(=O)N[C@H](Cc1c[nH]c2ccccc12)C(=O)N[C@H](CCCNC(=N)N)C(N)=O` [arg-trp-TRP-ARG-TYR-trp-arg-CONH2] (H-[dR][dW]WRY[dW][dR]-NH2), in test [1] (methicillin resistant), the “MIC MRSA” value came to 2.5 µg/mL. The “MIC E. coli” value in test [2] (ATCC 25922) came out at 7.5 µg/mL (≈ 6.21 µM). For the same compound, in test [3] (ATCC 25923), the “MIC S. aureus” value is 5 µg/mL (≈ 4.14 µM).
